# Laboratory results published in US6395738B1, “Benzofuran derivatives” (Kyowa Hakko Kogyo Co., Ltd., priority 1997, dated 2002).
# Counter-ions that a name gives are not always drawn. Like-named read-outs stand apart in the source and are kept apart here.
# How the values were obtained:
# Water solubility = assay type: physicochemical
# Protocol: Further, Compound (I) has an amide structure containing a piperazine ring at the 2-position of the benzofuran skeleton and can be converted into a pharmaceutically acceptable acid addition salt. […] For example, Compound 1 upon conversion into monohydrochloride becomes dissolved in water at a ratio of 7.4 μg/ml.
# Male Sunkus murinus = assay: Vomiting test on male Sunkus; assay type: in vivo; conditions: for Number of animals with vomiting/Number of tested animals: Dose (mg) 10, intraperitoneal, observed for 1 hour
# Protocol: Vomiting Test on Male Sunkus
# Male Sunkus murinus weighing about 60 g, 5 to 15 animals/group, were used in the test According to the method of Matsuki et al. (Japan J. Pharmacol., 48, 303 (1988)), each Sunkus animal was isolated and left in a wire-netting cage (15 cm width×21 cm length×15 cm height). Each test compound was suspended in physiological saline containing 0.5% Tween 80 and then intraperitoneally (i.p.) administered into each animal in a dose of 10 μl/g. […] The results were expressed in the number of animals with vomiting/the number of tested animals in the group given the test compound.
# Compounds P and Q were used as the comparative compounds.
# [1] = molecular target: T1, Recombinant Human PDE IV Enzyme (HSPDE4A) (Homo sapiens, UniProt P27815); assay: Inhibition test on recombinant human PDE IV enzyme; assay type: biochemical; conditions: [3H]cAMP substrate
# T1 construct: except that 223 amino acids have been deleted from the N-terminal thereof; made in house; host or cells: E. coli
# T1 sequence (P27815 224-886 limits assumed): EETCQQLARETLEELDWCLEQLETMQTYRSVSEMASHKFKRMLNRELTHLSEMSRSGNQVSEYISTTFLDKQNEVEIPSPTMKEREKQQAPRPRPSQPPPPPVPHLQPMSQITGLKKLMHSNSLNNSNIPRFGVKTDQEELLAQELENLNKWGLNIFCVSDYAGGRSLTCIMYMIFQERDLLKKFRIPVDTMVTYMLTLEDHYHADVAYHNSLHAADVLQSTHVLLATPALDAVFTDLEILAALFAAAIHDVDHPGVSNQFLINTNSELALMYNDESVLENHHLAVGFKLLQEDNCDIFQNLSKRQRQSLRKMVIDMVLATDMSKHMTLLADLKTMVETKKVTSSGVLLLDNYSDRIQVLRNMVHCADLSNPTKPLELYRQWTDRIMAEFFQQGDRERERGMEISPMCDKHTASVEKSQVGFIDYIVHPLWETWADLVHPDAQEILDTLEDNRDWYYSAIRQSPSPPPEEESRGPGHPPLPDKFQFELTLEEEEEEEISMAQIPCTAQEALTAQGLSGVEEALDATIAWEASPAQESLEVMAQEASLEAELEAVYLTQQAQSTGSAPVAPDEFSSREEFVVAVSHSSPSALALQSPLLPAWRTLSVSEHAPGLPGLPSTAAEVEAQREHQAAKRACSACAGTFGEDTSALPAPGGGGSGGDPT
# Protocol: Inhibition Test on Recombinant Human PDE IV Enzyme
# Human phosphodiesterase cDNA (HSPDE4A) was isolated from testicles. Its predicted amino acid sequence is identical with the sequence (HSPDE4A5) reported by Bolger, G. et al. (Mol. Cell. Biol., 6558 (1993)) except that 223 amino acids have been deleted from the N-terminal thereof. This recombinant protein was expressed by an E. coli expression plasmid and then purified. The PDE activity was measured in the following 2-step process according to the method of Kincaid, R. and Manganiello, V. [Method. Enzymol., 159, 457 (1988)]. The substrate used was [^3H]cAMP (final concentration: […]), and the reaction was performed in a standard mixture containing N,N-bis(2-hydroxyethyl)-2-aminoethanesulfonic acid (50 mmol/l, pH 7.2), MgCl2 (1 mmol/l) and soybean trypsin inhibitor (0.1 mg/ml). The reaction was initiated by adding the enzyme thereto, and the mixture was incubated at 30° C. for 10 to 30 minutes. The reaction was quenched by hydrochloric acid, and the formed 5′-AMP was completely decomposed with […]. This sample was subjected to chromatography on DEAE-Sephadex A-25, and the eluted [^3H]adenosine was counted with a scintillation counter. The test compound was added after dissolved (concentration: 1.7%) in DMSO.
# TNF α = assay: Inhibitory activity on production of TNF α in mouse model with LPS-induced sepsis; assay type: in vivo, BALB/c male mice; conditions: for Ratio of inhibition (%) of TNF α production: Dose (mg) 30, orally administered 90 minutes before LPS i.v., serum TNF α by ELISA 1 hour after LPS; for inhibitory activity on production of TNF α (in words): summary of Table 3
# [2] = concentration of test compound 10^−7 mol/L
# [3] = concentration of test compound 10^−8 mol/L
Compound,"solubility (Water solubility; Compound 1 upon conversion into monohydrochloride, read-out: dissolved in water (water solubility))",Number of animals with vomiting/Number of tested animals (Male Sunkus murinus),"Ratio of inhibition (%) [1, 2]","Ratio of inhibition (%) [1, 3]",melting point,Ratio of inhibition (%) of TNF α production (TNF α),vomiting as a side effect (in words) (Male Sunkus murinus; summary of Table 4),inhibitory activity on production of TNF α (in words) (TNF α),solubility (Water solubility; read-out: water solubility)
"COc1ccc(C(=O)Nc2c(Cl)cncc2Cl)c2cc(C(=O)N3CCN(C)CC3)oc12 [Compound 1, 4-(3,5-Dichloro-4-pyridyl)carbamoyl-7-methoxy-2-(4-methyl-1-piperazinyl)carbonylbenzofuran]",7.4 µg/mL,0/5,75%,25%,224 to 225 °C,68%,–,–,–
"COc1ccc(C(=O)Nc2c(Cl)cncc2Cl)c2cc(C(=O)N3CCN(CCO)CC3)oc12 [Compound 2, 4-(3,5-Dichloro-4-pyridyl)carbamoyl-2-[4-(2-hydroxyethyl)-1-piperazinyl]carbonyl-7-methoxybenzofuran]",–,0/5,72%,22%,164 to 165 °C,65%,–,–,–
"COc1ccc(C(=O)Cc2c(Cl)cncc2Cl)c2cc(C(=O)N3CCN(C)CC3)oc12 [Compound 13, 4-[2-(3,5-Dichloro-4-pyridyl)-1-oxoethyl]-2-(4-methyl-1-piperazinyl)carbonyl-7-methoxybenzofuran]",–,0/5,–,–,160 to 161 °C,65%,–,–,–
"COc1ccc(C(=O)Cc2c(Cl)cncc2Cl)c2cc(C(=O)N3CCN(CCO)CC3)oc12 [Compound 14, 4-[2-(3,5-Dichloro-4-pyridyl)-1-oxoethyl]-2-[4-(2-hydroxyethyl)-1-piperazinyl]carbonyl-7-methoxybenzofuran]",–,0/5,–,–,155 to 156 °C,65%,–,–,–
"COc1ccc(C(=O)Cc2ccncc2)c2c1OC1(CCCC1)C2 [Compound P, 7-methoxy-4-[1-oxo-2-(4-pyridyl)ethyl]-spiro[2,3-dihydrobenzofuran-2,1′-cyclopentane].hydrochloride, reference compound]",–,5/5,–,–,–,81%,caused vomiting,high inhibitory activity,–
"COc1ccc(C(=O)Nc2c(Cl)cncc2Cl)c2cc(C(=O)c3ccccc3)oc12 [Compound Q, 2-benzoyl-4-(3,5-dichloro-4-pyridyl)carbamoyl-7-methoxybenzofuran, reference compound]",–,0/5,–,–,–,30%,–,high inhibitory activity,≤ 1 µg/mL
